Legend:
[1] = molecular target: T1, chlorite dismutase (AoCld) (Azospira oryzae, UniProt E2DI02); assay: biochemical
[2] = molecular target: T1, chlorite dismutase (AoCld); assay: UV-visible equilibrium binding titration (Soret band), pH […]; EPR with […] hyperfine splitting; set-up: recombinant, N-terminal His6 tag
[3] = molecular target: T1, chlorite dismutase (AoCld); assay: UV-visible equilibrium binding titration (Soret band), pH […]; EPR low-spin adduct; set-up: recombinant, N-terminal His6 tag
[4] = molecular target: T2, chlorite dismutase (AoCld) R183A (Azospira oryzae, UniProt E2DI02, R217A); assay: ligand binding to the R183A mutant (Fig. S7)
T2 construct: recombinant, N-terminal His6 tag
T2 sequence (E2DI02 35-282, stated change not applied): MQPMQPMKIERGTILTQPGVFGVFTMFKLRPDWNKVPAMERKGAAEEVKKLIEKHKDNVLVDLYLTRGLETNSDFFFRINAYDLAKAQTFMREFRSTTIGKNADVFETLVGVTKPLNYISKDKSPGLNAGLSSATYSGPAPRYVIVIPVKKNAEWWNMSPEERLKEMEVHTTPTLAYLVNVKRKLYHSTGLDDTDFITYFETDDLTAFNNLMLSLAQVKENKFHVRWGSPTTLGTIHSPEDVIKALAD

T1 sequence (E2DI02 35-282): as the sequence (E2DI02 35-282, stated change not applied) above

SMILES: CC(=O)O [Ac, acetate]
- Kd [1]: 17.5 ± 0.5 mM

SMILES: F [F^−, fluoride]
- Kd [2]: 15.6 ± 1.9 mM

SMILES: c1c[nH]cn1 [Im, imidazole]
- Kd [3]: 0.0105 ± 0.0024 mM
- ligand binding to the R183A mutant (Fig. S7) [4]: Mutagenesis of Arg183 to Ala results in the complete loss of affinity for fluoride and acetate, but not for imidazole
